Source: patent US9233983B2, “Substituted hetero-bicyclic compounds, compositions and medicinal applications thereof” (ADVINUS THERAPEUTICS LIMITED, priority 2012, dated 2016)

Experiments:
[1] = biological target: human Bruton's Tyrosine Kinase (Btk) (Homo sapiens (Human), UniProt Q06187); assay: Recombinant Human Bruton's Tyrosine Kinase (Btk) Inhibition Assay (HTRF KinEASE-TK); type: biochemical; conditions: 20 ng/ml rhBtk, 77 μM ATP (KM), 1 μM TK-Biotin substrate, 90 min; read-out: hBTK IC50
mouse splenocytes = assay: Inhibition of B Cell Activation as Measured by CD69 Expression in Mouse Splenocytes; type: cell-based; conditions: Splenocyte; C57/BL6 splenocytes, 3 ug/mL goat anti-mouse IgM, 18-20 hrs, CD69+ve cells within CD19; read-out: Mouse spleenocyte IC50
How it was run: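 Total mouse splenocytes pre-incubated with compounds (half-log dilutions; DMSO 200× stocks from 2 mM) 30 min at 37 °C, then stimulated with 3 ug/mL anti-mouse IgM for 18-20 hrs. CD69+ cells within CD19+ B cells quantified by flow cytometry; IC50 from variable-slope sigmoid dose-response fit.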

Sequence of human Bruton's Tyrosine Kinase (Btk) (Q06187 whole entry): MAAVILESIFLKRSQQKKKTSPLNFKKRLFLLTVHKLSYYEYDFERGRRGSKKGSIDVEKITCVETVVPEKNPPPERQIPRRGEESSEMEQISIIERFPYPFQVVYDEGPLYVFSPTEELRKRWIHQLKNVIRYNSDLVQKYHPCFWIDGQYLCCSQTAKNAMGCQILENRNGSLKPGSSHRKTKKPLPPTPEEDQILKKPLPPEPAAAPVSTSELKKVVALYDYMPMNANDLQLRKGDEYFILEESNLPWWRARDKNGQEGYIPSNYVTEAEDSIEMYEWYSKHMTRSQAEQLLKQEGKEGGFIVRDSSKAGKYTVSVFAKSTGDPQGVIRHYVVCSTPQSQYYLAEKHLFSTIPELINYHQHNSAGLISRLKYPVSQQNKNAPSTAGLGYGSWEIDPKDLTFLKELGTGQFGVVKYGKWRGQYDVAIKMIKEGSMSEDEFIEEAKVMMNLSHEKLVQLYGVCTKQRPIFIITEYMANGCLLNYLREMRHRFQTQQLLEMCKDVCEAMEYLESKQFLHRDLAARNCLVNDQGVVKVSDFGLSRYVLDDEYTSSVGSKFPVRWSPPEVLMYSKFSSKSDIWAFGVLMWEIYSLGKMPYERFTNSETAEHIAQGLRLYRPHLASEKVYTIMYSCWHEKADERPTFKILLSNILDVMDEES

IC50 [1]	IC50 (mouse splenocytes)	Structure (SMILES)
4 nM	130 nM	C=CC(=O)N1CCCC(n2cc(-c3cc4c(-c5cccc(N6CCOc7cc(C8CC8)ccc7C6=O)c5CO)ncnc4[nH]3)cn2)C1 (stereo not shown) [Example S-1, 8-cyclopropyl-4-[2-(hydroxymethyl)-3-[6-[1-(1-prop-2-enoyl-3-piperidyl)pyrazol-4-yl]-7H-pyrrolo[2,3-d]pyrimidin-4-yl]phenyl]-2,3-dihydro-1,4-benzoxazepin-5-one]
12 nM	126 nM	N#CCN1CC(n2cc(-c3cc4c(-c5cccc(N6CCOc7cc(C8CC8)ccc7C6=O)c5CO)ccnc4[nH]3)cn2)C1 [Example S-2, 2-[3-[4-[4-[3-(8-cyclopropyl-5-oxo-2,3-dihydro-1,4-benzoxazepin-4-yl)-2-(hydroxymethyl)phenyl]-1H-pyrrolo[2,3-b]pyridin-2-yl]pyrazol-1-yl]azetidin-1-yl]acetonitrile]
